What was measured:
waterhemp = experiment: Test C postemergence; format: in vivo, Amaranthus rudis; settings: for Plant response rating, Waterhemp: scale 0 to 100 (0 no effect, 100 complete control)
Method in brief: (§1)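 Sown in loam/sand → sprayed pre-emergence; or grown to 1–4 leaves in peat mix → sprayed post-emergence. Same solvent/surfactant formulation both ways. Greenhouse 13–15 d. Score 0–100 visual.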

wild oat = experiment: Test C postemergence; format: in vivo, Avena fatua; settings: for Plant response rating, Oat, Wild: scale 0 to 100 (0 no effect, 100 complete control)
Method in brief: as §1

sedge, umbrella = experiment: Test B flooded paddy test; format: in vivo, Cyperus difformis; settings: Flood, 250 g ai/ha; 0 to 100 scale where 0 is no effect and 100 is complete control
Method in brief: (§2)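 Greenhouse flooded-pot test: compounds dosed into 3 cm standing water over 2-leaf plants, flood held constant. Rated visually after 13–15 days on 0–100 (complete control = 100); a dash marks no test result.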

giant foxtail = experiment: Test C preemergence; format: in vivo, Setaria faberii; settings: for Foxtail, Giant plant response rating: preemergence
Method in brief: as §1

pigweed = experiment: Test C postemergence; format: in vivo, Amaranthus retroflexus; settings: for Plant response rating, Pigweed: scale 0 to 100 (0 no effect, 100 complete control)
Method in brief: as §1

barnyardgrass [1] = experiment: Test C postemergence; format: in vivo, Echinochloa crus-galli; settings: for Plant response rating, Barnyardgrass: scale 0 to 100 (0 no effect, 100 complete control)
Method in brief: as §1

johnsongrass = experiment: Test C postemergence; format: in vivo, Sorghum halepense
Method in brief: as §1

Italian ryegrass = experiment: Test C postemergence; format: in vivo, Lolium multiflorum; settings: for Plant response rating, Ryegrass, Italian: scale 0 to 100 (0 no effect, 100 complete control)
Method in brief: as §1

corn = experiment: Test C preemergence; format: in vivo, Zea mays; settings: for Corn plant response rating: preemergence
Method in brief: as §1

yellow nutsedge = experiment: Test C postemergence; format: in vivo, Cyperus esculentus; settings: for Plant response rating, Nutsedge, Yellow: scale 0 to 100 (0 no effect, 100 complete control)
Method in brief: as §1

velvetleaf = experiment: Test C postemergence; format: in vivo, Abutilon theophrasti; settings: for Plant response rating, Velvetleaf: scale 0 to 100 (0 no effect, 100 complete control)
Method in brief: as §1

barnyardgrass [2] = experiment: Test B flooded paddy test; format: in vivo, Echinochloa crus-galli; settings: Flood, 250 g ai/ha; 0 to 100 scale where 0 is no effect and 100 is complete control
Method in brief: as §2

barnyardgrass [3] = experiment: Test A postemergence; format: in vivo, Echinochloa crus-galli; settings: 0 to 100 scale where 0 is no effect and 100 is complete control
Method in brief: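 Visual injury scored 0–100 (100 = complete control) against untreated controls about 10 days after treatment in a greenhouse. Test chemicals, formulated with surfactant in non-phytotoxic solvent, were sprayed on soil preemergence or on 2-10 cm, one- to two-leaf plants postemergence.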

[4] = 16 g ai/ha, postemergence, 0 is no effect, 100 is complete control
[5] = 125 g ai/ha, postemergence, visual rating
[6] = 16 g ai/ha, scale 0 to 100 (0 no effect, 100 complete control)
[7] = 62 g ai/ha, scale 0 (no effect) to 100 (complete control)
[8] = 125 g ai/ha, scale 0 (no effect) to 100 (complete control)
[9] = Preemergence, 31 g ai/ha, scale 0 to 100, 0 no effect, 100 complete control

Cc1cnc(Oc2cccc(C#N)c2-n2cc(I)cn2)nc1 [Compound 136]
Plant response rating (0 to 100), Waterhemp (waterhemp; [4]): 40
Plant response rating, Waterhemp (waterhemp; [5]): 30
Plant response rating, Waterhemp (waterhemp; Postemergence, 62 g ai/ha): 35
Plant response rating (0 to 100), Oat, Wild (wild oat; [4]): 0
Plant response rating, Oat, Wild (wild oat; [5]): 5
Plant response rating, Oat, Wild (wild oat; Postemergence, 62 g ai/ha): 5
Plant response rating, Sedge, Umbrella (sedge, umbrella): 70
Foxtail, Giant plant response rating (giant foxtail; [6]): 0
Foxtail, Giant plant response rating (giant foxtail; [7]): 80
Foxtail, Giant plant response rating (giant foxtail; [8]): 100
Plant response rating, Foxtail, Giant (giant foxtail; [9]): 5
Plant response rating (0 to 100), Pigweed (pigweed; [4]): 45
Plant response rating, Pigweed (pigweed; [5]): 55
Plant response rating, Pigweed (pigweed; Postemergence, 62 g ai/ha): 55
Plant response rating (0 to 100), Barnyardgrass (barnyardgrass [1]; [4]): 0
Plant response rating, Barnyardgrass (barnyardgrass [1]; [5]): 5
Plant response rating, Barnyardgrass (barnyardgrass [1]; Postemergence, 31 g ai/ha, 13 to 15 days): 0
Plant response rating, Barnyardgrass (barnyardgrass [1]; Postemergence, 62 g ai/ha): 0
Plant response rating (0 to 100), Johnsongrass (johnsongrass; [4]): 0
Plant response rating, Johnsongrass (johnsongrass; Postemergence, 62 g ai/ha, scale 0 to 100 (0 no effect, 100 complete control)): 0
Plant response rating (0 to 100), Ryegrass, Italian (Italian ryegrass; [4]): 0
Plant response rating, Ryegrass, Italian (Italian ryegrass; [5]): 0
Plant response rating, Ryegrass, Italian (Italian ryegrass; Postemergence, 62 g ai/ha): 0
Corn plant response rating (corn; [6]): 5
Corn plant response rating (corn; [7]): 5
Corn plant response rating (corn; [8]): 15
Plant response rating, Corn (corn; [9]): 0
Plant response rating (0 to 100), Nutsedge, Yellow (yellow nutsedge; [4]): 0
Plant response rating, Nutsedge, Yellow (yellow nutsedge; [5]): 10
Plant response rating, Nutsedge, Yellow (yellow nutsedge; Postemergence, 62 g ai/ha): 5
Plant response rating (0 to 100), Velvetleaf (velvetleaf; [4]): 10
Plant response rating, Velvetleaf (velvetleaf; [5]): 25
Plant response rating, Velvetleaf (velvetleaf; Postemergence, 62 g ai/ha): 10
Plant response rating, Barnyardgrass (barnyardgrass [2]): 20
Barnyardgrass plant response rating (barnyardgrass [3]; 125 g ai/ha): 30
Plant response rating, Barnyardgrass (barnyardgrass [3]; 500 g ai/ha): 90
